Like-named read-outs stand apart in the source and are kept apart here.
Assays:
HSV-1 strain KOS1.1 = assay type: cell-based; settings: for yield of cell-free and cell-associated virus: 24 hours post-infection, MOI 50, BCD 7.2 mg/ml, ACV 400 μg/ml or both, pre, during and post infection treatment (FIG. 1)
HSV-2 strain MS = experiment: CPE reduction assay in Vero cells, HSV-2; assay type: cell-based
d27-lacZ1 (β-gal HSV) = experiment: Semi-quantitative PCR of intracellular HSV DNA (HSV entry); settings: MOI 0.01 or 0.1, β-CD 7.2 mg/ml pre-, 5.4 mg/ml post-infection, versus untreated infected cells

SMILES: OC[C@H]1O[C@@H]2O[C@H]3[C@H](O)[C@@H](O)[C@@H](O[C@H]4[C@H](O)[C@@H](O)[C@@H](O[C@H]5[C@H](O)[C@@H](O)[C@@H](O[C@H]6[C@H](O)[C@@H](O)[C@@H](O[C@H]7[C@H](O)[C@@H](O)[C@@H](O[C@H]8[C@H](O)[C@@H](O)[C@@H](O[C@H]1[C@H](O)[C@H]2O)O[C@@H]8CO)O[C@@H]7CO)O[C@@H]6CO)O[C@@H]5CO)O[C@@H]4CO)O[C@@H]3CO [BCD, β-cyclodextrin]
- reduction of KOS1.1 virus yield at 24 hours (HSV-1 strain KOS1.1; 6.4 mg/ml BCD, MOI 10, post-infection treatment): approximately 10^3 fold
- yield of cell-free and cell-associated virus (HSV-1 strain KOS1.1): more effective at reducing virus numbers than ACV alone
- yield of cell-free and cell-associated virus (HSV-1 strain KOS1.1; listed as β-CD): reduced to a greater extent by β-CD than by a fairly high concentration of acyclovir
- effect on yield of acyclovir-sensitive HSV KOS1.1 (FIG. 2) (HSV-1 strain KOS1.1; MOI 10, 20 μM ACV or 6.4 mg/ml β-CD for 24 hours): lowered the yield
- protection of Vero cells by inhibition of viral CPE (HSV-2 strain MS; HSV-2, MOI 0.001 and 0.1, BCD 7-8 mg/ml): almost complete protection
- inhibition of infection, direct microscopy and crystal violet staining (HSV-2 strain MS; HSV-2, MOI 2.0): inhibited infection
- anti-herpes effects at high multiplicity of infection (HSV-2 strain MS; HSV-2, MOI >50, BCD 7-8 mg/ml): exhibited anti-herpes effects
- amount of intracellular viral DNA / viral entry (d27-lacZ1 (β-gal HSV)): did not significantly alter viral entry
- amount of intracellular viral DNA / viral entry (d27-lacZ1 (β-gal HSV); listed as β-CD): No significant differences

Source: US20070219159A1, “CYCLODEXTRIN COMPOSITIONS AND METHODS OF TREATING VIRAL INFECTIONS” (priority 2002, published 2007)
